Measurements from patent US20240101528A1, “SUBSTITUTED PYRAZOLO PIPERIDINE CARBOXYLIC ACIDS” (BAYER AKTIENGESELLSCHAFT, priority 2020, published 2024).
Where a name gives a salt, the structure may show the parent alone.

Tests used:
[1] = Pharmacokinetic parameters following intravenous administration in rats; type: in vivo, male Wistar rats
Description: (§1) B-5. Determination of Pharmacokinetic Parameters Following Intravenous and Oral Administration
(§2) The pharmacokinetic parameters of the compounds according to the invention were determined in male Wistar rats and/or in female beagles and/or in cynomolgus monkeys and/or in male CD-1 mice. Intravenous administration in the case of mice and rats was carried out by means of a species-specific plasma/DMSO formulation, and in the case of dogs and monkeys by means of a water/PEG400/ethanol formulation. In all species, oral administration of the dissolved substance was performed via gavage, based on a water/PEG400/ethanol formulation.
(§3) An internal standard (which may also be a chemically unrelated substance) was added to the samples of the compounds of the invention, calibration samples and qualifiers, and there followed protein precipitation by means of acetonitrile in excess. Addition of a buffer solution matched to the LC conditions, and subsequent vortexing, was followed by centrifugation at 1000 g. The supernatant was analysed by LC-MS/MS using C18 reversed-phase columns and variable mobile phase mixtures. The substances were quantified via the peak heights or areas from extracted ion chromatograms of specific selected ion monitoring experiments.
(§4) The plasma concentration/time plots determined were used to calculate the pharmacokinetic parameters such as AUC, Cmax, t1/2 (terminal half-life), F (bioavailability), MRT (mean residence time) and CL (clearance), by means of a validated pharmacokinetic calculation program.
(§5) Since the substance quantification was performed in plasma, it was necessary to determine the blood/plasma distribution of the substance in order to be able to adjust the pharmacokinetic parameters correspondingly. For this purpose, a defined amount of substance was incubated in K3 EDTA whole blood of the species in question in a rocking roller mixer for 20 min. After centrifugation at 1000 g, the plasma concentration was measured (by means of LC-MS/MS; see above) and determined by calculating the ratio of the Cblood/Cplasma value.

[2] = molecular target: T1, recombinant guanylate cyclase reporter cell line (Rattus norvegicus, UniProt P20595); assay: Effect on a recombinant guanylate cyclase reporter cell line; type: cell-based; details: for MEC: minimum effective concentration
T1 construct: expressed in transfected cells
T1 sequence (P20595 1-619): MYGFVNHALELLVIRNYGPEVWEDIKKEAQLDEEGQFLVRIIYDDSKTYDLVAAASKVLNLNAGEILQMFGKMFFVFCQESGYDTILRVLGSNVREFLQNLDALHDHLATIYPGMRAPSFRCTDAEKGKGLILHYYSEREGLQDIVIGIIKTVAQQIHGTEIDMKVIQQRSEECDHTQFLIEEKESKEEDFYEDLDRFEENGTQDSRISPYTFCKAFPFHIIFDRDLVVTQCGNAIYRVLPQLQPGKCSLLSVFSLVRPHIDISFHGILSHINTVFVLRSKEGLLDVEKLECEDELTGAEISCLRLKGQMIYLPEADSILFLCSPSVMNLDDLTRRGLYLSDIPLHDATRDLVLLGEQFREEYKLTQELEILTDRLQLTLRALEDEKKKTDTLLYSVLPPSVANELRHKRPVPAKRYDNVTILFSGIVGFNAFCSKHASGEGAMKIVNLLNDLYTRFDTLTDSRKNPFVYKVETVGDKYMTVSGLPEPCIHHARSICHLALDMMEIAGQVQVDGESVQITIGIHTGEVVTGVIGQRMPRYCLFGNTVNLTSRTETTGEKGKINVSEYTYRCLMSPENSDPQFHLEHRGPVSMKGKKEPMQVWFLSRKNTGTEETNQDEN
T1 sequence (P19686 1-690 partner): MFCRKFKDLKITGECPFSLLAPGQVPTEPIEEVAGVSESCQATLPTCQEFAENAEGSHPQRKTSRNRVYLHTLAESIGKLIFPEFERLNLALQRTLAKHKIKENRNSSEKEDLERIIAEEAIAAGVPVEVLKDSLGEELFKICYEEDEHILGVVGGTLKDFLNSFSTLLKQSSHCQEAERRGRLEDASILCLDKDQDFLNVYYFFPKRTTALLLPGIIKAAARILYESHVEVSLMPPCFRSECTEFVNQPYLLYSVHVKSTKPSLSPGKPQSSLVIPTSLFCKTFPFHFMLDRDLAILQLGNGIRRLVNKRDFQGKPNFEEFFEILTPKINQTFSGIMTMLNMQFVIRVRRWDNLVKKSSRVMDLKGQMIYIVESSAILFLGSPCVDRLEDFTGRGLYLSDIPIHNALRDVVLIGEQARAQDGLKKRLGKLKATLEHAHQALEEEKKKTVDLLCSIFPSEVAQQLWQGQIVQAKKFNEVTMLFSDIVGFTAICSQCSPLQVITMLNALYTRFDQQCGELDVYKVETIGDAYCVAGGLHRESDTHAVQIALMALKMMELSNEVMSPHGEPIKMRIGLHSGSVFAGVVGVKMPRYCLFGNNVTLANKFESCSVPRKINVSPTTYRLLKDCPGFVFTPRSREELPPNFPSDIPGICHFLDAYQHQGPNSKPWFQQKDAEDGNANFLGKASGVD
Description: B-1. Effect on a Recombinant Guanylate Cyclase Reporter Cell Line
The cellular activity of the compounds according to the invention was determined using a recombinant guanylate cyclase reporter cell line, as described in F. Wunder et al., Anal. Biochem. 339, 104-112 (2005).

[3] = Pharmacokinetic parameters following oral administration in rats; type: in vivo, male Wistar rats; details: for F: bioavailability
Description: as §1, §2, §3, §4, §5

| Structure (SMILES) | AUCnorm ([1]; intravenous administration) [kg·h/L] | MRT ([1]; male, Wistar, rat, plasma, intravenous administration) [h] | clearance ([1]; male, Wistar, rat, plasma, intravenous administration, read-out: CLplasma (converted)) [mL/min/kg] | half-life ([1]; male, Wistar, rat, plasma, intravenous administration, read-out: t½ (converted)) [h] | EC50 ([2]; half maximal effective concentration) [nM] | MEC [2] [nM] | AUCnorm [3] [kg·h/L] | F [3] [%] | MRT ([3]; male, Wistar, rat, plasma, read-out: MRT) [h] | half-life ([3]; male, Wistar, rat, plasma, read-out: t½ (converted)) [h] | Half live in comparison to example 174 in WO 2012/058132 ([1]; after i.v. application) | mean residence time (MRT) in comparison to example 174 in WO 2012/058132 ([1]; after i.v. application) |
| --- | --- | --- | --- | --- | --- | --- | --- | --- | --- | --- | --- | --- |
| O=C(O)c1cnn(C2CCCN(c3cc(Cl)ccc3-c3ccc(N4CCN(CC(F)F)CC4)cc3)C2)c1C(F)F (single isomer, unassigned; enantiomer 2) [Example 19, 1-[1-{4-Chloro-4′-[4-(2,2-difluoroethyl)piperazin-1-yl][biphenyl]-2-yl}piperidin-3-yl]-5-(difluoromethyl)-1H-pyrazole-4-carboxylic acid hydrochloride (Enantiomer 2)] | 3.09 | 5.66 | 5.33 | 4.24 | 1.9 | 0.3 | 0.25 | 8.01 | 7.46 | 4.65 |  |  |
| O=C(O)c1cnn(C2CCCN(c3cc(Cl)ccc3-c3ccc(N4CCN(CC(F)(F)F)CC4)cc3)C2)c1C(F)F (single isomer, unassigned; enantiomer 1) [Example 20, 1-[1-[5-Chloro-2-[4-[4-(2,2,2-trifluoroethyl)piperazin-1-yl]phenyl]phenyl]-3-piperidyl]-5-(difluoromethyl)pyrazole-4-carboxylic acid (Enantiomer 1)] | 2.29 |  |  |  |  | 1.6 | 2.11 | 91.7 |  |  | longer | longer |
| O=C(O)c1cnn(C2CCCN(c3cc(Cl)ccc3-c3ccc(N4CCN(CC(F)(F)F)CC4)cc3)C2)c1C(F)F (single isomer, unassigned; enantiomer 2) [Example 21, 1-[1-[5-Chloro-2-[4-[4-(2,2,2-trifluoroethyl)piperazin-1-yl]phenyl]phenyl]-3-piperidyl]-5-(difluoromethyl)pyrazole-4-carboxylic acid (Enantiomer 2)] | 7.23 |  |  |  |  | 1.6 | 4.04 | 56.1 |  |  |  |  |
| CCCN1CCN(c2ccc(-c3ccc(Cl)cc3N3CCCC(n4ncc(C(=O)O)c4C(F)F)C3)cc2)CC1 (single isomer, unassigned; enantiomer 2) [Example 5, 1-{1-[4-Chloro-4′-(4-propylpiperazin-1-yl)[biphenyl]-2-yl]piperidin-3-yl}-5-(difluoromethyl)-1H-pyrazole-4-carboxylic acid hydrochloride (Enantiomer 2)] | 1.40 |  |  |  |  | 0.3 | 0.84 | 59.9 |  |  |  |  |
